Assay results taken from patent US10080747B2, “Nicotinic attenuation of CNS inflammation and autoimmunity” (priority 2008, dated 2018).
Like-named read-outs stand apart in the source and are kept apart here.

Tests used:
Th cells = system: Th cells
Description: Single cell suspensions (4×10^7 cells) were prepared and incubated at 37° C. for 3 days in round-bottom plates (2×10^6 cells/well) with or without antigens (MOG 10 μg/ml, PLP 10 µg/ml or Con A 2.5 μg/ml), and stimulated with PMA (20 ng/ml)/ionomycin (1 μg/ml)/brefeldin A (5 μg/ml) for another 5 h at 37° C. After harvesting, cells were stained for surface markers with fluorochrome-conjugated monoclonal antibodies including anti-CD3-PE/Cy5 (17A2), anti-CD4-APC/Cy7 (GK1.5), and anti-CD8α-PE/Cy7 (53-6.7) (BD Bioscience). Isotype-matched negative monoclonal antibodies were used as controls. For intracellular cytokine staining, after fixation and permeabilization with Cytofix/Cytoperm kit (BD Bioscience), anti-IFN-γ, anti-IL-4, anti-IL-10 and anti-IL-17 monoclonal antibody conjugated with Alexa 647 were used. All samples were analyzed on a FACSAria using Diva. To determine the percentage of cells producing cytokine, the value obtained with the isotype control was subtracted from that with specific antibody. For cytokine induction, supernatants were collected 3 days after in vitro boosting. IFN-γ, IL-10, IL-2 and TGF-β were measured by optEIA kits (PharMingen and eBioscience).

spleen mononuclear cells [1] = conditions: day 11 p.i.
spinal cord of EAE mice = conditions: day 25 p.i., vs PBS
Description: Mice were anesthetized with pentobarbital and perfused by intracardiac puncture with 50 ml of cold PBS. Spinal cords were removed and fixed in 10% formalin/PBS. Paraffin-embedded longitudinal sections were prepared and stained for hematoxylin and eosin (H&E), luxol fast blue (LFB, myelin staining) and Biechowsky silver (axon staining). The percentages of spinal cord inflammation, demyelination and axonal damage per mouse were calculated by first determining the total white matter area for all spinal cord sections by manually tracing the regions. Next, the areas of spinal cord inflammation, demyelination and axonal damage were determined by manually tracing each section. Pathological changes in each spinal cord were scored as follows: 0 no changes; 1 focal area involvement; 2 <5% of total myelin area involved; 3 5-10% of total myelin area involved; 4 10-20% involved area; 5 >20% of total myelin area involved (Bai, X. F., et al., J Exp Med 200:447-458).

spleen mononuclear cells [2] = conditions: annexin V and PI double staining, at the current dose (13 mg/kg/d)
Description: Cell viability was assessed by trypan blue dye exclusion. […] Single cell suspensions were washed in PBS and resuspended in binding buffer containing annexin V-FITC and propidium iodide (PI) (both from BD Biosciences) for 20 min at room temperature. The samples were analyzed on a FACSAria using Diva.

MOG-specific antibodies = system: MOG-specific antibodies
Description: MOG-reactive antibodies were quantified by enzyme-linked immunoabsorbent assay (ELISA). Briefly, microtiter plates (Corning Glass Works, Corning, N.Y., USA) were coated with 100 μl/well of murine MOG35-55 (10 μg/ml) at 4° C. overnight. After blocking with 10% fetal bovine serum, serum samples (day 11, peak stage after immunization) were added and incubated at 4° C. overnight. Plates were then incubated for 2 h with biotinylated rabbit anti-mouse IgG, IgG1, IgG2a, IgA, IgG3 and IgG2b (Invitrogen, Carlsbad, Calif., USA), followed by alkaline phosphatase-conjugated ABC reagent (Dakopatts; R&D systems, Minneapolis, Minn., USA). The color was developed with p-nitrophenyl-phosphate. Results were expressed as optical density (OD) at […].

[3] = system: MOG35-55-specific T cells; conditions: splenocytes day 11 p.i.
Source text: Isotype-matched negative monoclonal antibodies were used as controls.

[4] = system: adoptively transferred EAE in B6 mice; conditions: recipients of T cells from nicotine-treated donors
CNS mononuclear cells = conditions: day 11 p.i.
Description: For CNS cell isolates, at day 11 after EAE induction (peak stage), mice were sacrificed and perfused with PBS through the left heart ventricle to eliminate contaminating blood cells in the CNS. The CNS mononuclear cells were then isolated from five to six mice using Percoll gradients and stained for cell surface markers. Antibodies were directly labeled and analyzed as done for splenocytes. The absolute number of a particular cell subset was calculated by counting the total number of mononuclear cells isolated from the CNS of individual mice and multiplying by the percentage of those cells acquired by FACSAria flow cytometry (Bai, X. F., et al., J Exp Med 200:447-458).

acute EAE in B6 mice = conditions: for mean clinical score, remaining mild motor deficit after recovery: PBS 2.75±0.25; for mean maximal clinical score: scale 0 to 5, PBS 4.25±0.80
[5] = supernatants of splenocytes cultured with MOG35-55, vs controls
[6] = serum day 11 after immunization, vs control mice
[7] = nicotine pre-treated group (day −7)

CN1CCCC1c1cccnc1 (centres unmarked) [nicotine]
production of TGF-β1 (Th cells; supernatants of splenocytes cultured with MOG35-55, p<0.01): significantly augmented | production of IL-10 (Th cells; supernatants of splenocytes cultured with MOG35-55, p<0.05): significantly augmented | IFN-γ production (Th cells; [5]): significant decrease | production of IL-2 (Th cells; [5]): decreased | percentages and numbers of CD3+, CD4+ and CD8+ T cells and CD19+CD3− B cells among splenocytes (spleen mononuclear cells [1]; nicotine from day 0, vs control EAE mice, p<0.05): various degrees of reductions | expression of Foxp3 (spleen mononuclear cells [1]; spleen, vs PBS): clearly augmented | NK cells, NKT cells and CD4+CD25+ regulatory T cells in spleen (spleen mononuclear cells [1]; vs PBS): did not differ significantly | expression of MHC class II, CD80 and CD86 on peripheral CD11c+ and CD11b+ cells (spleen mononuclear cells [1]; vs PBS): reductions in the expression of MHC class II, CD80 and CD86 were notable | numbers and percentages of CD11c+ and CD11b+ cells in spleen (spleen mononuclear cells [1]; vs PBS): not dramatically altered | axonal damage, Biechowsky silver (spinal cord of EAE mice): scarcely affected | demyelination, LFB staining (spinal cord of EAE mice): myelin sheets were largely preserved | spinal cord inflammation (cellular infiltration), H&E (spinal cord of EAE mice): few infiltrating cells | T cell apoptosis and death (spleen mononuclear cells [2]): did not induce T cell apoptosis | MOG-specific IgG2b production (MOG-specific antibodies; mouse, in vivo): profoundly impaired | MOG-specific IgA synthesis (MOG-specific antibodies; [6]): markedly increased | MOG-specific IgG1 synthesis (MOG-specific antibodies; [6]): markedly increased | T cell proliferation in response to MOG, 3H incorporation ([3]; p<0.05 vs PBS): far fewer T cells | proliferation of CD3+, CD4+ and CD8+ T cells in response to MOG, CFSE assay ([3]; vs PBS): reduced proliferation | mean clinical score [4]: 1.0±0.15 | maximal clinical score ([4]; control 5.0±0.25): 2.5±0.82 | CD11b+ (macrophage/microglia) and CD11c+ (dendritic) cells in the CNS (CNS mononuclear cells; vs PBS): lower percentages and absolute numbers | expression of MHC class II, CD80 and CD86 on CNS CD11c and CD11b cells (CNS mononuclear cells; vs PBS): reduced | numbers of T cells (CD3+, CD4+, CD8+) and B cells (CD3−CD19+) in the CNS (CNS mononuclear cells; vs PBS-treated EAE mice): drastically reduced | onset of EAE (acute EAE in B6 mice; nicotine 13 mg/kg/d for 7 days by minipump, prior to or on the day of disease induction, PBS controls 7.6±0.53 days): ≥ 10 day p.i. | day by which the majority of animals recovered (acute EAE in B6 mice; [7]): ≤ 21 days | mean clinical score, remaining mild motor deficit after recovery (acute EAE in B6 mice; [7]): 0.83±0.26 | day by which the majority of animals recovered (acute EAE in B6 mice; nicotine-treated group (day 0)): ≤ 24 days | mean clinical score, remaining mild motor deficit after recovery (acute EAE in B6 mice; nicotine-treated group (day 0)): 0.85±0.25 | mean maximal clinical score (acute EAE in B6 mice; pre-treatment starting day −7, 13 mg/kg/d x 7): 3.17±0.78 | mean maximal clinical score (acute EAE in B6 mice; treatment starting day 0 after immunization, 13 mg/kg/d x 7): 3.13±0.25 | severity of EAE compared with PBS (acute EAE in B6 mice; treatment starting day 7 p.i. when EAE signs began, 13 mg/kg/d x 7): significantly milder EAE | mean clinical score at the termination of experiments (acute EAE in B6 mice; treatment starting day 7 p.i., 13 mg/kg/d x 7): 0.69±0.43
